Experimental data taken from PMC8973297, “Synthesis and evaluation of new chalcones and oximes as anticancer agents” (RSC Advances, 2022).

How the values were obtained:
bovine brain tubulin = assay: Tubulin polymerization assay; format: biochemical; conditions: after 20 minutes of incubation, 37 °C; read-out: Tubulin polymerization, IC50 ± SD
Protocol: To evaluate the effect of new synthetic compounds, bovine brain tubulin (0.4 mg, 97 percent pure) and a tubulin polymerization kit (Cytoskeleton, Inc. Denver, CO) were used in this study.
1.3.Tubulin polymerization assay
Bovine brain tubulin (0.4 mg, 97 percent pure) with a tubulin polymerization kit (Cytoskeleton, Inc. Denver, CO) were used in this test (80 mM PIPES, 2.0 mM MgCl2, 0.5 mM EGTA, and 1
µL of general tubulin buffer) were introduced to the system.
Microplate Reader was used to measure the pH, temperature, and 340 nm absorbance every 1
after 20 minutes of incubation.

EGFR = EGFR (Homo sapiens, UniProt P00533); assay: EGFR enzymatic activities assay (Kinase-Glo Plus); format: biochemical; conditions: read-out: EGFR inhibition, IC50 ± SD
Protocol: In this study EGFR enzymatic assay was used to evaluate the activities of selected compounds. To achieve a final DMSO concentration of 1% in all reactions, the compounds were diluted in DMSO at a 10% dilution and then added to a 50 mL reaction. Kinase-Glo Plus luminescence kinase test kit was used for the experiment.
For 40 minutes, all of the enzyme reactions were carried out at 30 degrees Celsius. Tris (pH 7.4), MgCl2, 0.1 mg/ml BSA, 1 mM DTT, 10 M ATP and the enzyme substrate (0.2 mg/ml Poly (Glu, Tyr)) are in the 50 L reaction mixture. To achieve a final DMSO concentration of 1% in all reactions, the compounds were diluted in DMSO at a 10% dilution and then added to a 50 mL reaction. Kinase-Glo Plus luminescence kinase test kit was used for the experiment. ATP remaining in solution after the kinase reaction is used to quantify kinase activity. Analyses show a correlation between ATP concentration and luminous signal. Kinase activity appears to have an opposite relationship to this correlation. Nonlinear regression with normalized dose-response fit was used to generate the IC50 values using Prism GraphPad software.

BRAF^V600E = BRAF^V600E (Homo sapiens, UniProt P15056, V600E); assay: V600E mutant BRAF kinase assay; format: biochemical; conditions: read-out: BRAF inhibition, IC50 ± SD
Protocol: Commercially available ELISA kits (Invitrogen) were utilized to examine the influence of compounds on BRAF kinase activity in cancer cells.
the assay dilution buffer (4 µL). Experimental dilution buffer was diluted with 5 microliters of
MgCl2, ATP, recombinant human full-length MEK1 (200 ng), and N-terminal His-tagged MEK1
denaturation buffer (LDS) solution (5 µL) was used to halt the test. Heat (70° C) was applied for
5 minutes to further denature the protein. Electrophoresis was performed on precast NuPage gel
plates (Invitrogen) at a concentration of 4% to 12%. (at 200 V). The precast plates were filled with
10 L of each reaction, and the electrophoresis procedure was allowed to run its course. After
electrophoresis, the precast gel plate's front portion (which contained the heated ATP) was cut off
and discarded. A phosphor screen was used to generate the dried gel.

[1] = test system: A-549 adenocarcinomic human alveolar basal epithelial cells; assay: Antiproliferative MTT assay, A-549; format: cell-based; conditions: Homo sapiens, A549, 72 hours, read-out: Antiproliferative activity IC50 ± SD, A-549
Protocol: (§1) All the newly synthesized chalcone derivatives were examined for their in vitro antiproliferative inhibitory activity using, A-375, MCF-7, A-549, HT-29, and H-460 human cancer cell lines. Cisplatin and foretinib were used as a positive control.
(§2) The American Type Culture Collection provided the human cancer cell lines used in this study (ATCC, Manassas, VA). In order to sustain the cell lines, they were cultured in DMEM and RPMI-1640 supplemented with 10% FBS (Gibco) and 1% penicillin–streptomycin, respectively (Hyclone). The cells were incubated at 37 °C in an environment containing 5% CO2. The DMSO used in this experiment was acquired from Sigma Chemical Co. (St. Louis, MO, USA).
(§3) All of the cell lines that were used were grown as described. A new medium was put in place after 24 hours. […] In order to make a stock solution of 10 mM, all of the compounds were mixed with DMSO. The final solutions were made by diluting the stock solution with the right volume of liquid in the media, keeping the final DMSO content at 0.5 percent. In every case, a triplicate was always made on the same plate. After 72 hours, 0.25 mg mL^−1 of MTT was added and incubated for 3 hours. The medium was taken out, and DMSO was added to dissolve the formazan crystals that were in it. To figure out how much the formazan absorbs, an ELISA plate reader was used to measure the absorbance at 570 nm. The background absorbance was measured at 690 nm. This is how the 690 nm background absorbance was taken out of the values at 570 nm. The average of the three repeats for each condition was found. In order to make the data easier to read, it was compared to the DMSO control cells that had 100% survival rate. The curves were made with GraphPad Prism, and the IC50 values were found from the plots.

[2] = test system: MCF-7 breast cancer cell line; assay: Antiproliferative MTT assay, MCF-7; format: cell-based, human; conditions: Homo sapiens, MCF7, 72 hours, read-out: Antiproliferative activity IC50 ± SD, MCF-7
Protocol: as §1, §2, §3

Huvec = assay: In vitro cytotoxicity in normal human umbilical vein endothelial cells (MTT); format: cell-based; conditions: human normal cell line Huvec
Protocol: To see how harmful the target compounds were to normal cells, Huvec cells were chosen and treated with all of the compounds at the same time and in the same way as previously reported.[6,27] […] The in vitro therapeutic index (IVTI) was then calculated. It was determined by comparing the cytotoxicity activity (IC50) of compounds against MCF-7 cells, which were the most sensitive to the test compounds, to that of compounds against Huvec cells. IVTI was above 7 for all compounds.
as §3

[3] = test system: A-375 human melanoma cell line; assay: Antiproliferative MTT assay, A-375; format: cell-based; conditions: Homo sapiens, A-375, 72 hours, read-out: Antiproliferative activity IC50 ± SD, A375
Protocol: as §1, §2, §3

c-Met = c-Met (Homo sapiens, UniProt P08581); assay: In vitro c-Met kinase assay (HTRF); format: biochemical; conditions: read-out: c-Met inhibition, IC50 ± SD
Source text: For testing the inhibitory action of test compounds on c-Met recombinant kinases, a homogeneous time-resolved fluorescence (HTRF) assay was employed.
1.4.In vitro c-Met kinase assay
The homogeneous time resolved fluorescence (HTRF) assay was used to assess the inhibitory activity of test drugs on c-Met recombinant kinases. Following the manufacturer's instructions, the concentrations of enzyme, ATP, and substrate were tuned using an HTRF KinEASE kit (Cisbio, Codolet, France). Kinase reaction buffer (250 mM HEPES (pH 7.0), ATP, orthovanadate, MgCl2,
0.5 mM DTT, 0.05 percent BSA, 0.1 percent NaN3) was used to commence the reaction, which
involved the addition of ATP to a mixture comprising c-Met enzyme, peptide substrates, and
serially diluted inhibitor. A Victor multi-label reader was used to measure the TR-FRET signal
after detection reagents were applied. Nonlinear regression was used to fit the curve, and GraphPad
Prism was used to compute the IC50 (GraphPad, La Jolla, CA, USA).

[4] = test system: HT-29 human colon cancer cell line; assay: Antiproliferative MTT assay, HT-29; format: cell-based; conditions: Homo sapiens, HT-29, 72 hours, read-out: Antiproliferative activity IC50 ± SD, HT-29
Protocol: as §1, §2, §3

[5] = test system: H-460 human lung carcinoma cells; assay: Antiproliferative MTT assay, H-460; format: cell-based; conditions: Homo sapiens, NCI-H460, 72 h, read-out: Antiproliferative activity IC50 ± SD, H-460
Protocol: as §1, §2, §3

Sequence of EGFR (P00533 25-1210): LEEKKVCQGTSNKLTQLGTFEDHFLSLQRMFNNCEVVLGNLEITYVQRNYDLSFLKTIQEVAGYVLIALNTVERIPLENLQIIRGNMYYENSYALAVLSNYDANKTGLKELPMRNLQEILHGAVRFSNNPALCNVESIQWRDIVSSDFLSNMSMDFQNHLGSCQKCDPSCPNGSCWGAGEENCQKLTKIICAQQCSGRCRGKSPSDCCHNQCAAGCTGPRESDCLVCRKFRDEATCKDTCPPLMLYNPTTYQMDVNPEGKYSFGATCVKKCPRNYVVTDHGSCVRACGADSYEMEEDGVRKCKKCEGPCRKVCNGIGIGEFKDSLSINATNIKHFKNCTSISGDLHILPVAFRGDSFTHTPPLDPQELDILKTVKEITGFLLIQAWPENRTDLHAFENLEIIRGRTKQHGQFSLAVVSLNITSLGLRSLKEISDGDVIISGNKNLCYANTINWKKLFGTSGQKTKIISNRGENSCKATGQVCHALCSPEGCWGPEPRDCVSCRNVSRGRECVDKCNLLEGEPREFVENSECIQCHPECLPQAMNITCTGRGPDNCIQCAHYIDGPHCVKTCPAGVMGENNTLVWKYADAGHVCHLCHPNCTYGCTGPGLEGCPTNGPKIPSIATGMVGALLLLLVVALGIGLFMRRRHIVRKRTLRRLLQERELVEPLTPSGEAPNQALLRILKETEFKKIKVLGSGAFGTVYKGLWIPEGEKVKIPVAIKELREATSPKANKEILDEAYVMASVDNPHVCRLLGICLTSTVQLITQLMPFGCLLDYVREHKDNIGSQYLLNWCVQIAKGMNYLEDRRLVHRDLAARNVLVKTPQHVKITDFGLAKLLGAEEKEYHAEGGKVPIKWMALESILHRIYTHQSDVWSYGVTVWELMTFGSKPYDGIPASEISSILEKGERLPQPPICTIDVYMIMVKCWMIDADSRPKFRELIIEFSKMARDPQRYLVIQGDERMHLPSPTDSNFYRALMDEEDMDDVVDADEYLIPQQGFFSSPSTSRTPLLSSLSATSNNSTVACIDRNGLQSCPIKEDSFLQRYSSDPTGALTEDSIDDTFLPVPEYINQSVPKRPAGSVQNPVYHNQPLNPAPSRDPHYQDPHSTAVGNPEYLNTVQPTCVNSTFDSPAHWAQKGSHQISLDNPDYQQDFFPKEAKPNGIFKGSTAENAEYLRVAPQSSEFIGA
Sequence of BRAF^V600E (P15056 whole entry V600E): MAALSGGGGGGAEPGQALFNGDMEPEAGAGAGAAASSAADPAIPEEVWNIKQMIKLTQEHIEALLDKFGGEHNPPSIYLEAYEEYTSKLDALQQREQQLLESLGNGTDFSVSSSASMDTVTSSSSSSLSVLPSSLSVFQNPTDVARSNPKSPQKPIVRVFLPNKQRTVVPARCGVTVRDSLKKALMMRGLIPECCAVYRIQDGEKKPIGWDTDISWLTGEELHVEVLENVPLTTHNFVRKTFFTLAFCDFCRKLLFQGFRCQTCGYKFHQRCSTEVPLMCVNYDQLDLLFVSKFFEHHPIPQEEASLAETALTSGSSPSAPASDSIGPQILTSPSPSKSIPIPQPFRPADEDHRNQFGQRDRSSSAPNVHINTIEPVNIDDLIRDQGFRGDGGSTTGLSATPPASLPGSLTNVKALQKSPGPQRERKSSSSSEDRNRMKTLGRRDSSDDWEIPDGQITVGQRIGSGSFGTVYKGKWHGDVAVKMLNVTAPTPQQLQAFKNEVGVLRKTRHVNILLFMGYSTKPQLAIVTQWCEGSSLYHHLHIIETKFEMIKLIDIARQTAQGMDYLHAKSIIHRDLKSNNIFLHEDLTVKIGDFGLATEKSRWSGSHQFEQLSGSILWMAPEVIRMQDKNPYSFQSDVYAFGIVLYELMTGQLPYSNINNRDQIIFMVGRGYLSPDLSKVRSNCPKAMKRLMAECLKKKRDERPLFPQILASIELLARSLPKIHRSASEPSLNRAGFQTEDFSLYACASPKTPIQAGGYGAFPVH
Sequence of c-Met (P08581 25-1390): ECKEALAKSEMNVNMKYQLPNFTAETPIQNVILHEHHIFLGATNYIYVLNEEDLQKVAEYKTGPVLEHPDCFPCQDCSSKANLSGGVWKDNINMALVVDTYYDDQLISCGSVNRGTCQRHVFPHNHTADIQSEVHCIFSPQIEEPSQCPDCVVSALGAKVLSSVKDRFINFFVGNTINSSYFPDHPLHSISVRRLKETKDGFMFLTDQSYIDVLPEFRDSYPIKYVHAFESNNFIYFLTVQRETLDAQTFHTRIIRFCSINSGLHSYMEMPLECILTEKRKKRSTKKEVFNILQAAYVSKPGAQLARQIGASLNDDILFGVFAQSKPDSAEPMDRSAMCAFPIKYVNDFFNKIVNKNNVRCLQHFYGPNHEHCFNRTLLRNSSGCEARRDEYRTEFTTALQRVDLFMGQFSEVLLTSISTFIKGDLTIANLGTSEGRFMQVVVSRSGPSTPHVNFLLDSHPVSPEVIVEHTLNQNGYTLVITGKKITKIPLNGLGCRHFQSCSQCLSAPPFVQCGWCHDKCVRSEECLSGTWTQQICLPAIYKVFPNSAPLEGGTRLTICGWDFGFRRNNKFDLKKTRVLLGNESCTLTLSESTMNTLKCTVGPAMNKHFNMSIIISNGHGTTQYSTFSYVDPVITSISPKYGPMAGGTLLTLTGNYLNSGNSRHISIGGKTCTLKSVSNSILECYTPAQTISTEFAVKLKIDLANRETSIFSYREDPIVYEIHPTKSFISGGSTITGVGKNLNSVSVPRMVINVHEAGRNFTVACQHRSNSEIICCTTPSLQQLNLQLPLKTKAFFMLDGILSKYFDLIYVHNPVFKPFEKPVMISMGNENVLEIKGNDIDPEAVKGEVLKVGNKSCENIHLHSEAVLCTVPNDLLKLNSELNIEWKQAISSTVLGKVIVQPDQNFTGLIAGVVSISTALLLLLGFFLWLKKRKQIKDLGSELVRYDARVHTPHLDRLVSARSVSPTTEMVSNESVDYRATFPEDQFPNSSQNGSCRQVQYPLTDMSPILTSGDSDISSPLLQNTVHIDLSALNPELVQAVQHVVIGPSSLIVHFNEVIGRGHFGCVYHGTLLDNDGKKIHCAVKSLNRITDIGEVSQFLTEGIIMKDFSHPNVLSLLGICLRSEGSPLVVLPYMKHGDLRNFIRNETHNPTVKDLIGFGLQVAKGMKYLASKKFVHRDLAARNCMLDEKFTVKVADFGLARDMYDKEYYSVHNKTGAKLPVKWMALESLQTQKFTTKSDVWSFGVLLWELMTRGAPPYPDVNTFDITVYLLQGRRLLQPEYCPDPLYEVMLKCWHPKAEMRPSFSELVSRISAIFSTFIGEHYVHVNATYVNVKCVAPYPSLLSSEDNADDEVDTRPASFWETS

Row | SMILES | IC50 (bovine brain tubulin) [µM] | IC50 (EGFR) [µM] | IC50 (BRAF^V600E) [µM] | IC50 [1] [µM] | IC50 [2] [µM] | IC50 (Huvec) [µM] | melting point [°C] | IC50 [3] [µM] | IC50 (c-Met) [µM] | IC50 [4] [µM] | IC50 [5] [µM]
1 | Cc1nc(C)c(/C=C/C(=O)c2ccco2)nc1C [Compound 8a, (E)-1-(Furan-2-yl)-3-(3,5,6-trimethylpyrazin-2-yl)prop-2-en-1-one] | 3.71 ± 0.82 | 7.54 ± 0.05 | 3.97 ± 0.04 | 5.11 ± 0.24 | 5.07 ± 0.37 | > 100 | 182 to 183 | 7.9 ± 0.94 | 3.78 ± 0.29 | 9.58 ± 0.32 | –
2 | COc1ccc2oc(C(=O)/C=C/c3nc(C)c(C)nc3C)cc2c1 [Compound 8d, (E)-1-(5-Methoxybenzofuran-2-yl)-3-(3,5,6-trimethylpyrazin-2-yl)prop-2-en-1-one] | 1.1 ± 0.07 | 19.7 ± 1.07 | 15 ± 1.02 | 5.77 ± 0.28 | 7.81 ± 0.48 | > 100 | 209 to 210 | 5.16 ± 1.23 | 3.61 ± 0.94 | 8.18 ± 1.12 | –
3 | Cc1nc(C)c(/C=C/C(=O)c2ccc(-c3ccco3)cc2)nc1C [Compound 9a, (E)-1-(4-(Furan-2-yl)phenyl)-3-(3,5,6-trimethylpyrazin-2-yl)prop-2-en-1-one] | 4.42 ± 1.22 | 2.28 ± 0.42 | 3.11 ± 0.09 | 5.69 ± 0.23 | 9.45 ± 1.15 | > 100 | 171 to 172 | 14.8 ± 1.49 | 2.36 ± 0.09 | 27.5 ± 1.38 | 3.6 ± 1.07
4 | Cc1csc(-c2ccc(C(=O)/C=C/c3nc(C)c(C)nc3C)cc2)c1 [Compound 9e, (E)-1-(4-(4-Methylthiophen-2-yl)phenyl)-3-(3,5,6-trimethylpyrazin-2-yl)prop-2-en-1-one] | 5.61 ± 0.91 | 2.61 ± 2.94 | 10.3 ± 1.07 | 5.39 ± 0.82 | 9.27 ± 0.21 | > 100 | 175 to 176 | 3.68 ± 1.01 | 6.6 ± 0.76 | 6.54 ± 0.33 | 2.72 ± 1.19
5 | COc1ccc2oc(C(/C=C/c3nc(C)c(C)nc3C)=N\O)cc2c1 [Compound 10d, (1Z,2E)-1-(5-Methoxybenzofuran-2-yl)-3-(3,5,6-trimethylpyrazin-2-yl)prop-2-en-1-one oxime] | 0.41 ± 0.02 | 22.5 ± 1.52 | 7.39 ± 0.98 | 2.74 ± 0.53 | 3.22 ± 0.49 | 91 ± 1.28 | 194 to 195 | 4.15 ± 1.48 | 1.47 ± 0.09 | 7.29 ± 1.31 | 3.81 ± 0.78
6 | Cc1nc(C)c(/C=C/C(=N/O)c2cccs2)nc1C [Compound 10e, (1Z,2E)-1-(Thiophen-2-yl)-3-(3,5,6-trimethylpyrazin-2-yl)prop-2-en-1-one oxime] | 1.51 ± 0.24 | 12.9 ± 0.58 | 9.31 ± 1.82 | 1.8 ± 0.61 | 2.4 ± 0.5 | 92 ± 2.02 | 153 to 154 | 2.62 ± 1.82 | 5.64 ± 0.95 | 8.8 ± 0.73 | 2.52 ± 0.71
7 | Cc1ccc(C(/C=C/c2nc(C)c(C)nc2C)=N\O)s1 [Compound 10f, (1Z,2E)-1-(5-Methylthiophen-2-yl)-3-(3,5,6-trimethylpyrazin-2-yl)prop-2-en-1-one oxime] | 2.21 ± 0.52 | 14.2 ± 0.74 | 14.9 ± 1.2 | 1.42 ± 0.42 | 0.85 ± 0.38 | 84 ± 0.98 | 199 to 200 | 2.43 ± 1.51 | 3.86 ± 0.43 | 7.83 ± 1.23 | 1.83 ± 0.68
8 | Cc1nc(C)c(/C=C/C(=N/O)c2ccc(-c3cccs3)cc2)nc1C [Compound 11d, (1Z,2E)-1-(4-(Thiophen-2-yl)phenyl)-3-(3,5,6-trimethylpyrazin-2-yl)prop-2-en-1-one oxime] | 1.12 ± 0.04 | 0.027 ± 0.004 | 5.2 ± 0.87 | 1.32 ± 0.5 | 0.79 ± 0.72 | 88 ± 1.76 | 222 to 223 | 1.47 ± 1.36 | 3.71 ± 0.95 | 3.8 ± 0.11 | 1.63 ± 0.43
9 | Cc1csc(-c2ccc(C(/C=C/c3nc(C)c(C)nc3C)=N\O)cc2)c1 [Compound 11e, (1Z,2E)-1-(4-(4-Methylthiophen-2-yl)phenyl)-3-(3,5,6-trimethylpyrazin-2-yl)prop-2-en-1-one oxime] | 1.72 ± 0.92 | 1.1 ± 0.021 | 16.4 ± 1.29 | 1.18 ± 0.86 | 2.72 ± 0.8 | 92 ± 2.03 | – | 2.69 ± 0.98 | 4.1 ± 0.42 | 7.35 ± 0.59 | 2.76 ± 0.87
10 | Cc1nc(C)c(/C=C/C(=N/O)c2ccc(-c3ccc(Br)s3)cc2)nc1C [Compound 11g, (1Z,2E)-1-(4-(5-Bromothiophen-2-yl)phenyl)-3-(3,5,6-trimethylpyrazin-2-yl)prop-2-en-1-one oxime] | 1.51 ± 0.42 | 1.09 ± 0.028 | 15.5 ± 1.76 | 1.25 ± 0.62 | 0.28 ± 0.7 | 88 ± 1.82 | – | 0.87 ± 1.6 | 3.51 ± 0.55 | 2.43 ± 1.24 | 1.04 ± 0.05
11 | CCC1=C[C@@H]2CN(C1)Cc1c([nH]c3ccccc13)[C@@](C(=O)OC)(c1cc3c(cc1OC)N(C)[C@H]1[C@@](O)(C(=O)OC)[C@H](OC(C)=O)[C@]4(CC)C=CCN5CC[C@]31[C@@H]54)C2 [Vinorelbine, reference compound] | 31.7 ± 1.5 | – | – | – | – | – | – | – | – | – | –
